Tested on: inflammatory abdominal pain caused by acetic acid
Assay: Abdominal inflammatory pain caused by acetic acid
Format: in vivo, Kunming mice
Details: mice, 10 mg/kg i.p. 1 h before acetic acid; indometacin 20 mg/kg (FIG. 4)
Experimental: In the Experimental example, compounds to be evaluated or compounds to be tested or test compounds used are the Compounds 1-46 prepared in the Examples according to the invention. In the Experimental example, all the agents for injection, including compounds to be evaluated or compounds to be tested or test compounds, and positive control drug, were dissolved in a mixed solvent of PEG400:Tween 80:normal saline (at a volume ratio of 5:5:90), at a concentration of 5 mg/mL.
Typical model for studying inflammation-induced visceral pain medically was used to evaluate the therapeutic effects of compounds on inflammatory visceral pain. The model can represent general visceral pain including, but not only limited to appendicitis, gastritis, pancreatitis, prostatitis, myocarditis, interstitial cystitis, pain caused by hepatic, gall or kidney stone, irritable bowel syndrome, and chronic pelvic pain syndrome.
Experimental Kunming mice (purchased by Xiamen University Laboratory Animal Center from Shanghai SLAC Laboratory Animal Co., Ltd) were in an experimental environment with free access to food and water for 1 week. The mice were fasted for 24 h before administration. The compound to be evaluated (10 mg/kg) was administered to the mice by intraperitoneal injection at 1 h before administration of acetic acid, wherein the positive control drug indometacin was administered at a dose of 20 mg/kg, and the blank control was normal saline. Acetic acid (50 μL, acetic acid dissolved in normal saline, at a concentration of 5%) was administered to the mice by intraperitoneal injection, and the mice were then placed in the observation cage. A video camera was used to record the behavior of the mice in the following 20 min. Pain-related behavior was analyzed statistically based on torsion times of the mice in said period.

SMILES	effect of inhibiting abdominal inflammatory pain
O=C(CCCCCc1ccccc1)N1CCOC1=O [Compound 2, Phenylhexanoyl Oxazolidinone]	significant effects of inhibiting abdominal inflammatory pain
O=C(CCCCCc1cccc(Cl)c1)N1CCOC1=O [Compound 9, 3-Chlorophenylhexanoyl Oxazolidinone]	significant effects of inhibiting abdominal inflammatory pain
